Data as given in BigSolDB 2.1.

CO/N=C(\C(=O)Sc1nc2ccccc2s1)c1csc(N)n1
Conditions | solubility (mole fraction)
in ethanol, 277.67 K | 0.000203
in ethanol, 283.11 K | 0.000248
in ethanol, 288.17 K | 0.000325
in ethanol, 293.09 K | 0.000399
in ethanol, 298.17 K | 0.000517
in ethanol, 303.09 K | 0.000688
in isobutanol, 277.67 K | 0.000148
in isobutanol, 283.07 K | 0.000171
in isobutanol, 287.99 K | 0.000206
in isobutanol, 292.79 K | 0.000268
in isobutanol, 297.77 K | 0.000345
in isobutanol, 304.27 K | 0.000531
in isopentanol, 277.65 K | 0.000183
in isopentanol, 283.07 K | 0.000215
in isopentanol, 288.37 K | 0.000286
in isopentanol, 293.03 K | 0.000371
in isopentanol, 298.17 K | 0.000472
in isopentanol, 302.63 K | 0.000622
in isopropanol, 277.91 K | 0.000116
in isopropanol, 283.21 K | 0.000142
in isopropanol, 288.05 K | 0.000168
in isopropanol, 293.19 K | 0.000211
in isopropanol, 298.13 K | 0.000283
in isopropanol, 303.13 K | 0.000365
in n-butanol, 278.11 K | 0.000262
in n-butanol, 283.53 K | 0.00032
in n-butanol, 288.37 K | 0.000424
in n-butanol, 293.03 K | 0.000525
in n-butanol, 297.73 K | 0.000662
in n-butanol, 303.71 K | 0.000962
in n-pentanol, 278.27 K | 0.000283
in n-pentanol, 283.33 K | 0.00034
in n-pentanol, 288.15 K | 0.000433
in n-pentanol, 293.23 K | 0.000564
in n-pentanol, 298.17 K | 0.000744
in n-pentanol, 303.15 K | 0.000992
in n-propanol, 277.85 K | 0.000226
in n-propanol, 283.17 K | 0.000256
in n-propanol, 288.13 K | 0.000332
in n-propanol, 293.17 K | 0.000414
in n-propanol, 297.97 K | 0.000544
in n-propanol, 302.81 K | 0.00079
